From patent US20250034159A1, “INHIBITORS OF EPIDERMAL GROWTH FACTOR RECEPTOR” (ORIC Pharmaceuticals, Inc., priority 2021, published 2025)
Where two headings read alike, the source gives them in different places.

Columns and labels:
[1] = test system: BaF3_EGFR LR/CS cells; test: Biological Activity Assay D: BaF3 cell proliferation assay, EGFR L858R/C797S mutant (BaF3 LR/CS); format: cell-based; conditions: Ba/F3 EGFR, read-out: BaF3 LR/CS IC50
Protocol: (§1) One frozen vial of cells should be thawed into one T25 flask in 10 mL media. Keep the flask upright in the incubator.
(§2) Method: One frozen vial of cells was thawed into one T25 flask in 10 mL media and the flask was kept upright in the incubator. Cells were split 1:10 every two to three days when cells reached confluency of around 1×10^6 cells/mL. Bravo protocol files were used with Greiner 384-well plates for all steps of compound preparation, cell plating and compound addition. […] 16 μL of DMSO were added (for compounds starting at 20 μM) or 28 μL DMSO (for compounds starting at 5 μM) to 96-well V-bottom polypropylene plate: wells 1A-1H (8 compounds/plate). […] 20 μL DMSO were added to the remainder of the wells (columns 2-12) in the 96-well V-bottom plate. A Bravo liquid handler was used to make 1:3 serial dilutions from columns 1 to 11 (12 remains as DMSO only) to prepare the DMSO dilution plate. 144 μL media were added to each well of a new 96-well V-bottom polypropylene plate to prepare the intermediate dilution plate. A Bravo or 96-head Integra liquid handler was used to add and mix 6 μL of test compound from the DMSO dilution plate to the intermediate dilution plate. (1:25 dilution). Cells were transferred from a flask into a 50 mL conical, vortex gently and the number of cells were counted, with a target cell number of about 1×10^6 cells per mL. The cells were diluted in culture medium in 50 mL conical or T25 flask, and the cell suspension was added to BRAVO reservoir and then use Bravo protocol to plate the appropriate number of cells shown below in 36 μl of medium per well as follows: Ba/F3-WT-EGFR 2000 cells per well of a 384 well plate; Ba/F3-LR/CS-EGFR 2000 cells per well of a 384 well plate; and Ba/F3-d19/CS-EGFR 1500 cells per well of a 384 well plate. An extra 10 mL of dead volume was utilized in each reservoir.
(§3) Using a Bravo liquid handler, 4 μl of test compound solution was added per well from the intermediate dilution plate to plated cells (1:10 dilution from the intermediate plate, final compound dilution 1:250 and final DMSO concentration per well is 0.4%). Using the 96 BRAVO Head, 25 μl were aspirated from the intermediate dilution plate and 4 μl each were dispensed into 4 wells (square pattern) in the 384-well plate. Any remaining test compound is dispensed into a secondary plate to prevent cross contamination of cells in the intermediate compound plate. After the compounds were added, the plate was shaken at 600 rpm gently for 60 see, and the plates were incubated in a tissue culture incubator, 37° C., 5% CO2, for ˜ 72 hours. After incubation, CTG 2.0 reagent was allowed to equilibrate to room temperature (˜3 hours) and cells to reach room temperature (˜10-15 minutes) and reagent was added to cells (40 μL/well) using a Bravo liquid handler. The plates were shaken to allow proper mixing (˜5 min) and let settle for 10 minutes and were read on Tecan plate reader using the appropriate luminescence method. Data from plate reader was transferred to an excel file and entered directly into Dotmatics using the protocols under EGFR Project/Cell Proliferation/named: “BaF3_EGFRwt_CP”, “BaF3_EGFR_d19/CS_CP”, “BaF3_EGFR_LR/CS_CP”. Curves were fit with a 4-parameter model and IC50s calculated by the Dotmatics software. DMSO wells were averaged to define the high control (100% growth). The average of the highest concentration of the positive control compound (afatinib) was used to define the 0% growth and used to lock the bottom of the curves. The tops of the curves were not fixed.

[2] = biological target: recombinant human EGFR exon 19 deletion/C797S double mutant protein (Homo sapiens (Human), UniProt P00533, C797S/DEL746-750); test: Biological Activity Assay C: biochemical assay against EGFR exon 19 deletion/C797S protein (EGFR d19/CS)
Protocol: In Row A of a 384-well polypropylene plate, was added 48 μL of DMSO. In wells A1 and A24, were added 12 μL of DMSO. […] To a well in Row A were added 12 μL of each 10 mM test compound stock (100% DMSO). […] The final intermediate dilution plate contained 4×16-point compound serial dilutions in assay buffer. The DMSO concentration was 10%. The intermediate compound dilution plate was transferred to the Bravo and the “5 uL dispense into ARP.pro” protocol was run. To the black low volume assay ready plates, were added 5 μL of 40 uM Phosphosens peptide sensor/4 mM ATP working solution to each well. […] To column 24, was added 10 μL of assay buffer. The final DMSO concentration was 2.5%. […] The plates were sealed with the TopSeal-A Plus plate seals. […] Set for 90 cycles with 120 second interval. […] The slope of each curve was constructed using Dotmatics in each well, and each IC50s was calculated using a 4-parameter fit model.

[3] = test system: BaF3_EGFR d19/CS cells; test: Biological Activity Assay D: BaF3 cell proliferation assay, EGFR exon 19 deletion/C797S (BaF3 d19/CS); format: cell-based; conditions: Ba/F3 EGFR, read-out: BaF3 d19/CS IC50
Protocol: as §1, §2, §3

[4] = test system: Ba/F3_EGFR WT cells; test: Biological Activity Assay D: BaF3 cell proliferation assay, EGFR wild-type (BaF3 WT); format: cell-based; conditions: Ba/F3 EGFR, read-out: BaF3 WT IC50
Protocol: as §1, §2, §3

[5] = BaF3_EGFR LR/CS cells, ~72 hours, CellTiter-Glo
[6] = BaF3_EGFR d19/CS cells, ~72 hours, CellTiter-Glo
[7] = Ba/F3_EGFR WT cells, ~72 hours, CellTiter-Glo

recombinant human EGFR exon 19 deletion/C797S double mutant protein, sequence (P00533 other isoform, or with tags, fused parts or gaps C797S/del 1-668/del 746-750 limits assumed): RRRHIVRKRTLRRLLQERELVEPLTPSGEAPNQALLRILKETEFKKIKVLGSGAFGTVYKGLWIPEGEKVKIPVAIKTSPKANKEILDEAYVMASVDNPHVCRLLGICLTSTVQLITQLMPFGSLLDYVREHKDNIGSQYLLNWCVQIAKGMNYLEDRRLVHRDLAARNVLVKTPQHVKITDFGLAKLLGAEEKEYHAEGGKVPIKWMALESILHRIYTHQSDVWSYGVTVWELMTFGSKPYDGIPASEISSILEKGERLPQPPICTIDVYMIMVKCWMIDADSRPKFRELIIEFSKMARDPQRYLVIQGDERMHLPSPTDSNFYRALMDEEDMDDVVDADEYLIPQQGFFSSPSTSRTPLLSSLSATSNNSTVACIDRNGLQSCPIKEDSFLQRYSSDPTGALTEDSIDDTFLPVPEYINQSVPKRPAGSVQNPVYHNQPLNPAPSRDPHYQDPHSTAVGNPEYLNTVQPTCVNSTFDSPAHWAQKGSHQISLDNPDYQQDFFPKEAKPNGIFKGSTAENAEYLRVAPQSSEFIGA

| SMILES | IC50 [1, 5] | IC50 [2] | IC50 [3, 6] | IC50 [4, 7] | IC50 ([1]; 72 h) | IC50 ([3]; 72 h) | IC50 ([4]; 72 h) |
| --- | --- | --- | --- | --- | --- | --- | --- |
| Fc1ccc(-c2nn(C3CCCOC3)cc2-c2ncnc3oc(-c4ccccc4)cc23)cc1 (racemic) [Example 122, 4-(3-(4-Fluorophenyl)-1-(tetrahydro-2H-pyran-3-yl)-1H-pyrazol-4-yl)-6-phenylfuro[2,3-d]pyrimidine] | 68 nM | 0.55 nM | 114 nM | 1850 nM | – | – | – |
| Fc1ccc(-c2nn([C@H]3CCOC[C@@H]3F)cc2-c2ncnc3oc(-c4ccccc4)cc23)cc1 (racemic) [Example 151, 4-[1-(3-fluorooxan-4-yl)-3-(4-fluorophenyl)-1H-pyrazol-4-yl]-6-phenylfuro[2,3-d]pyrimidine] | 16.1 nM | 1.45 nM | 68.1 nM | 1870 nM | – | – | – |
| Fc1ccc(-c2nn([C@H]3CCOC[C@H]3F)cc2-c2ncnc3oc(-c4ccccc4)cc23)cc1 (racemic) [Example 184, 4-[1-(3-fluorooxan-4-yl)-3-(4-fluorophenyl)-1H-pyrazol-4-yl]-6-phenylfuro[2,3-d]pyrimidine] | 30.7 nM | 0.26 nM | 57.6 nM | 1770 nM | – | – | – |
| CS(=O)(=O)[C@@H]1CC[C@H](n2cc(-c3ncnc4oc(-c5ccccc5)cc34)c(-c3ccc(F)cc3)n2)C1 (racemic) [Example 185, 4-{3-(4-fluorophenyl)-1-[3-(methanesulfonyl)cyclopentyl]-1H-pyrazol-4-yl}-6-phenylfuro[2,3-d]pyrimidine] | 256 nM | 1.43 nM | 395 nM | 6980 nM | – | – | – |
| C[C@@H]1OCC[C@H]1n1cc(-c2ncnc3oc(-c4ccccc4)cc23)c(-c2ccc(F)cc2)n1 (racemic) [Example 199, 2,5-anhydro-1,3,4-trideoxy-3-[3-(4-fluorophenyl)-4-(6-phenylfuro[2,3-d]pyrimidin-4-yl)-1H-pyrazol-1-yl]pentitol] | 85.4 nM | 0.92 nM | 294 nM | 3340 nM | – | – | – |
| CC1(C)CC(n2cc(-c3ncnc4oc(-c5ccccc5)cc34)c(-c3ccc(F)cc3)n2)CO1 (racemic) [Example 227, 4-[1-(5,5-dimethyloxolan-3-yl)-3-(4-fluorophenyl)-1H-pyrazol-4-yl]-6-phenylfuro[2,3-d]pyrimidine] | 53.3 nM | 0.63 nM | 42.3 nM | 2670 nM | – | – | – |
| O=S1(=O)CCC[C@H](Cn2cc(-c3ncnc4oc(-c5ccccc5)cc34)c(-c3ccc(F)cc3)n2)C1 (single isomer, unassigned) [Example 125] | 11.8 nM | 0.21 nM | 52.1 nM | 741 nM | – | – | – |
| O=S1(=O)CCC[C@@H](Cn2cc(-c3ncnc4oc(-c5ccccc5)cc34)c(-c3ccc(F)cc3)n2)C1 (single isomer, unassigned) [Example 126] | 14.6 nM | 0.18 nM | 58.2 nM | 720 nM | – | – | – |
| CC(=O)N1CC[C@@H](n2cc(-c3ncnc4oc(-c5ccccc5)cc34)c(-c3ccc(F)cc3)n2)C1 (single isomer, unassigned) [Example 128] | 105 nM | 0.41 nM | 125 nM | 1740 nM | – | – | – |
| CC(=O)N1CC[C@H](n2cc(-c3ncnc4oc(-c5ccccc5)cc34)c(-c3ccc(F)cc3)n2)C1 (single isomer, unassigned) [Example 129] | 66.6 nM | 0.2 nM | 107 nM | 1610 nM | – | – | – |
| Fc1ccc(-c2nn([C@@H]3CCCOC3)cc2-c2ncnc3oc(-c4ccccc4)cc23)cc1 (single isomer, unassigned) [Example 136] | 81.5 nM | 0.97 nM | 127 nM | 3050 nM | – | – | – |
| Fc1ccc(-n2nccc2-c2ccnc3[nH]c(-c4ccccc4)cc23)cc1 [Example 1, 4-[1-(4-fluorophenyl)-1H-pyrazol-5-yl]-2-phenyl-1H-pyrrolo[2,3-b]pyridine] | 349 nM | – | 211 nM | 2570 nM | – | – | – |
| OCCCc1nc(-c2ccnc3[nH]c(-c4ccccc4)cc23)n(-c2ccc(F)cc2)n1 [Example 2, 3-[1-(4-Fluorophenyl)-5-(2-phenyl-1H-pyrrolo[2,3-b]pyridin-4-yl)-1H-1,2,4-triazol-3-yl]propan-1-ol] | 89.5 nM | – | 104 nM | 724 nM | – | – | – |
| OCCCn1cc(-c2ccnc3cc(-c4ccccc4)[nH]c23)c(-c2ccc(F)cc2)n1 [Example 7, 3-[3-(4-Fluorophenyl)-4-(2-phenyl-1H-pyrrolo[3,2-b]pyridin-7-yl)-1H-pyrazol-1-yl]propan-1-ol] | 694 nM | – | 508 nM | 4710 nM | – | – | – |
| [2H]C([2H])([2H])n1cc(-c2ncnc3oc(-c4ccccc4)cc23)c(-c2ccc(F)cc2)n1 [Example 48, 4-[3-(4-Fluorophenyl)-1-(2H3)methyl-1H-pyrazol-4-yl]-6-phenylfuro[2,3-d]pyrimidine] | – | – | – | – | 60.4 nM | 47.9 nM | 2210 nM |
| Cn1cc(-c2ncnc3oc(-c4ccccc4)cc23)c(-c2ccc(F)cc2)n1 [Example 63, 4-[3-(4-Fluorophenyl)-1-methyl-1H-pyrazol-4-yl]-6-phenylfuro[2,3-d]pyrimidine] | – | – | – | – | 35.4 nM | 48.5 nM | 1270 nM |
| O=S1(=O)CCC(n2cc(-c3ncnc4oc(-c5ccccc5)cc34)c(-c3ccc(F)cc3)n2)CC1 [Example 83, 4-[3-(4-fluorophenyl)-4-(6-phenylfuro[2,3-d]pyrimidin-4-yl)-1H-pyrazol-1-yl]-1λ6-thiane-1,1-dione] | 529 nM | – | 640 nM | > 20000 nM | – | – | – |
| Fc1ccc(-c2nn(CCOC(F)(F)F)cc2-c2ncnc3oc(-c4ccccc4)cc23)cc1 [Example 144, 4-{3-(4-Fluorophenyl)-1-[2-(trifluoromethoxy)ethyl]-1H-pyrazol-4-yl}-6-phenylfuro[2,3-d]pyrimidine] | 33.6 nM | – | 89.6 nM | 1610 nM | – | – | – |
| Fc1ccc(-c2nn(CCC(F)F)cc2-c2ccnc3oc(-c4ccccc4)cc23)cc1 [Example 157, 4-[1-(3,3-difluoropropyl)-3-(4-fluorophenyl)-1H-pyrazol-4-yl]-2-phenylfuro[2,3-b]pyridine] | 15.2 nM | – | 40.8 nM | 1590 nM | – | – | – |
| O=S1(=O)CC(n2cc(-c3ncnc4oc(C5=CCN(S(=O)(=O)C6CC6)CC5)cc34)c(-c3ccc(F)cc3)n2)C1 [Example 177, 3-[4-{6-[1-(cyclopropanesulfonyl)-1,2,3,6-tetrahydropyridin-4-yl]furo[2,3-d]pyrimidin-4-yl}-3-(4-fluorophenyl)-1H-pyrazol-1-yl]-1λ6-thietane-1,1-dione] | 42 nM | – | 56.4 nM | 1590 nM | – | – | – |
